Measured values from publication PMC8395219, “Comparative Analysis of Single-Molecule Dynamics of TRPV1 and TRPV4 Channels in Living Cells” (International Journal of Molecular Sciences, 2021).

Biological target: T1, TRPV4 (Homo sapiens, UniProt Q9HBA0)
T1 construct: HaloTag fused to the N-terminus of human TRPV4, expressed in TRPV4-KO HEK293 cells
Test: FLIPR calcium mobilization assay in transfected TRPV4-KO HEK293 cells (agonist dose-response)
Type: cell-based

T1 sequence (Q9HBA0 whole entry, the tested form may be a part): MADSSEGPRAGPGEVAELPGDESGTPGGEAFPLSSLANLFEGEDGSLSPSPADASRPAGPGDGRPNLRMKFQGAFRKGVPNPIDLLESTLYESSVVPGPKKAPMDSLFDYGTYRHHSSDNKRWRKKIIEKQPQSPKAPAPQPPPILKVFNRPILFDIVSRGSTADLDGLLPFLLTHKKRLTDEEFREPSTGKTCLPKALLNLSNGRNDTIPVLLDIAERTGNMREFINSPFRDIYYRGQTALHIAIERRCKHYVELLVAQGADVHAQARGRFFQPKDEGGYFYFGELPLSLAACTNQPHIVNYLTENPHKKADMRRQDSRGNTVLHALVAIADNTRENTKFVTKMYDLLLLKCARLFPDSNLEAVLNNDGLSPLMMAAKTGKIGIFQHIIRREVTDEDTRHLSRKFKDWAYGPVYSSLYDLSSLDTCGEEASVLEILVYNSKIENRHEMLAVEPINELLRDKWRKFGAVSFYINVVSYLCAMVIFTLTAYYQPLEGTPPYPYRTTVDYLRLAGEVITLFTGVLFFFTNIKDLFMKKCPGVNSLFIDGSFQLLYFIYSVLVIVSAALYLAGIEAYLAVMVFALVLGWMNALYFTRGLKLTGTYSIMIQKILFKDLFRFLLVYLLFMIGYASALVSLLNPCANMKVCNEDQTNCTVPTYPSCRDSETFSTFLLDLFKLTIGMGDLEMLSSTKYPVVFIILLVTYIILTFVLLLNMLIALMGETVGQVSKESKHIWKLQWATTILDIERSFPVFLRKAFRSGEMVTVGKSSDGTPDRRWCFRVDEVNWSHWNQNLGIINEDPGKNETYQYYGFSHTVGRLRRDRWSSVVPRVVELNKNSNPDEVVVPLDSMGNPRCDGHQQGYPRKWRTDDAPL

Q: For CC(C)C[C@H](NC(=O)c1cc2ccccc2s1)C(=O)N1CCN(C(=O)[C@H](CO)NS(=O)(=O)c2ccc(Cl)cc2Cl)CC1 [GSK1016790A, N-((1S)-1-{[4-((2S)-2-{[(2,4-dichlorophenyl)sulfonyl]amino}-3-hydroxypropanoyl)-1-piperazinyl]carbonyl}-3-methylbutyl)-1-benzothiophene-2-carboxamide], which EC50 is on record?
A: 26 nM
